Data reported in article PMC6315362, “Cytotoxic Potential of the Novel Horseshoe Crab Peptide Polyphemusin III” (Marine Drugs, 2018).
Where a SMILES comes first, the peptide text is derived from it. Bridges are numbered along the chain shown (N, C = ends).

Tests used:
B. subtilis B-886 = assay: Antimicrobial assay, broth microdilution MIC; format: cell-based, Bacillus subtilis; conditions: B. subtilis B-886, Gram +, MH medium with NaCl, 24 h 37 °C, median of three independent triplicated experiments
Experimental: (§1) Bacterial test cultures were grown in the Mueller-Hinton (MH) medium at 37 °C to mid-log phase and then diluted with the 2 x MH medium supplemented with 1.8% NaCl. 50 µL of the bacterial suspension with a final cell concentration of 10^6 CFU/mL were added to aliquots of 50 µL of the peptide solutions and serially diluted with sterilized 0.1% bovine serum albumin in 96-well flat-bottom polystyrene microplates (Eppendorf, Hamburg, Germany). Bacterial cells were incubated for 24 h at 37 °C and 900 rpm on the plate thermoshaker (Biosan, Riga, Latvia). The minimum inhibitory concentrations (MIC) were determined as the lowest peptide concentration that prevented growth of a test microorganism observed as visible turbidity. The results were expressed as median values of three independent triplicated experiments. Assessment of antimicrobial activities of the recombinant PM III, other polyphemusins, and tachyplesins was conducted against Gram-negative (Escherichia coli ML-35p, Klebsiella pneumoniae (clinical isolate, CI 287), Pseudomonas aeruginosa PAO1) and Gram-positive (Staphylococcus aureus ATCC 29213, Staphylococcus aureus 209P, Bacillus subtilis B-886, Micrococcus luteus B-1314) bacteria.

M. luteus B-1314 = assay: Antimicrobial assay, broth microdilution MIC; format: cell-based, Micrococcus luteus; conditions: M. luteus B-1314, Gram +, MH medium with NaCl, 24 h 37 °C, median of three independent triplicated experiments
Experimental: as §1

human red blood cells = assay: Hemolytic activity assay; format: cell-based; conditions: for hemolysis at the maximal concentration: 100 µM peptide, human red blood cells 4% (v/v) in PBS pH 7.4, 1.5 h 37 °C, 0.1% Triton X-100 = 100%
Experimental: Testing of the hemolytic activity of polyphemusins and tachyplesins was performed using fresh human red blood cells (hBRC). Permeabilization of erythrocyte cytoplasmic membrane results in lysis followed by the release of hemoglobin. hBRC were washed three times with phosphate buffered saline (PBS: 10 mM Na2HPO4, 1.76 mM K2HPO4, pH 7.4, containing […], and 2.7 mM KCl). Two-fold serial dilutions of the peptide solutions were added to 50 μL aliquots of hRBC in the 96-well microplate. The final hBRC concentration was of 4% (v/v) in each well, and the final volume of suspension was 100 μL. After incubation of suspensions for 1.5 h at 37 °C under stirring at 1000 rpm, centrifugation of plates was done at 700 g for 5 min. The supernatant 50 μL aliquots were then transferred into flat-bottomed 96-well microplates. The absorbance at 405 nm was measured in a microplate reader (Eppendorf, Hamburg, Germany), allowing the detection of hemoglobin release. 0.1% Triton X-100 caused a complete lysis of erythrocytes, thus hBRC treated with Triton X-100 were used as a positive control. […] The percentage of hemolysis was calculated using the following Equation (1):Hemolysis (%) = (OD405 sample − OD405 0% lysis control)/(OD405 100% lysis control − OD405 0% lysis control) × 100%(1)
The quantitative data resulted from two series of experiments were represented as average means with standard deviations. The experiments were carried out using hBRC obtained from human blood samples of independent donors.

S. aureus ATCC 29213 = assay: Antimicrobial assay, broth microdilution MIC; format: cell-based, Staphylococcus aureus; conditions: S. aureus ATCC 29213, Gram +, MH medium with NaCl, 24 h 37 °C, median of three independent triplicated experiments
Experimental: as §1

S. aureus 209P = assay: Antimicrobial assay, broth microdilution MIC; format: cell-based, Staphylococcus aureus; conditions: Gram +, MH medium with NaCl, 24 h 37 °C, median of three independent triplicated experiments
Experimental: as §1

E. coli ML-35p = assay: Antimicrobial assay, broth microdilution MIC; format: cell-based, Escherichia coli; conditions: Gram -, MH medium with NaCl, peptide diluted in 0.1% BSA, 10^6 CFU/mL, 24 h 37 °C, median of three independent triplicated experiments
Experimental: as §1

K. pneumoniae (CI 287) = assay: Antimicrobial assay, broth microdilution MIC; format: cell-based, Klebsiella pneumoniae; conditions: Gram -, MH medium with NaCl, 24 h 37 °C, median of three independent triplicated experiments
Experimental: as §1

SMILES | MICs (B. subtilis B-886) [µM] | MICs (M. luteus B-1314) [µM] | hemolysis at the maximal concentration (human red blood cells) | MICs (S. aureus ATCC 29213) [µM] | MICs (S. aureus 209P) [µM] | MICs (E. coli ML-35p) [µM] | MICs (K. pneumoniae (CI 287)) [µM] | HC50 relative to IC50 measured for the HL-60 cell line (human red blood cells; HC50 / IC50 (HL-60)) [fold] | half-hemolysis concentration (HC50) (human red blood cells; fresh human red blood cells 4% (v/v) in PBS pH 7.4, 1.5 h 37 °C, absorbance 405 nm, two independent series of triplicated experiments) [µM]
CC(C)[C@@H]1NC(=O)[C@H](CCCNC(=N)N)NC(=O)[C@H](Cc2ccccc2)NC(=O)[C@@H](NC(=O)[C@H](Cc2c[nH]c3ccccc23)NC(=O)[C@H](CCCNC(=N)N)NC(=O)[C@@H](N)CCCNC(=N)N)CSSC[C@@H](C(=O)N[C@@H](CCCNC(=N)N)C(=O)O)NC(=O)[C@H](CCCCN)NC(=O)[C@H](CCCNC(=N)N)NC(=O)[C@H](Cc2ccc(O)cc2)NC(=O)[C@@H]2CSSC[C@H](NC1=O)C(=O)N[C@@H](Cc1ccc(O)cc1)C(=O)N[C@@H](CCCNC(=N)N)C(=O)NCC(=O)N[C@@H](Cc1ccccc1)C(=O)N2 [PM I, polyphemusin I] (H-RRWCFRVCYRGFCYRKCR-OH; disulfide 4-17, 8-13 (inferred); N-terminus assumed) | 0.25 | 0.5 | ~ 45% | 4 | 0.5 | 0.062 | 0.5 |  | 
CC(C)[C@@H]1NC(=O)[C@H](CCCNC(=N)N)NC(=O)[C@H](Cc2ccccc2)NC(=O)[C@@H](NC(=O)[C@H](Cc2c[nH]c3ccccc23)NC(=O)[C@H](CCCNC(=N)N)NC(=O)[C@@H](N)CCCNC(=N)N)CSSC[C@@H](C(=O)N[C@@H](CCCNC(=N)N)C(=O)O)NC(=O)[C@H](CCCCN)NC(=O)[C@H](CCCNC(=N)N)NC(=O)[C@H](Cc2ccc(O)cc2)NC(=O)[C@@H]2CSSC[C@H](NC1=O)C(=O)N[C@@H](Cc1ccc(O)cc1)C(=O)N[C@@H](CCCCN)C(=O)NCC(=O)N[C@@H](Cc1ccccc1)C(=O)N2 [PM II, polyphemusin II] (H-RRWCFRVCYKGFCYRKCR-OH; disulfide 4-17, 8-13 (inferred); N-terminus assumed) | 0.5 | 1 | ~ 30% | 4 | 0.5 | 0.031 | 0.5 |  | 
CC(C)[C@@H]1NC(=O)[C@H](CCCNC(=N)N)NC(=O)[C@H](Cc2ccccc2)NC(=O)[C@@H](NC(=O)CNC(=O)[C@H](CCCNC(=N)N)NC(=O)[C@@H](N)CCCNC(=N)N)CSSC[C@@H](C(=O)N[C@@H](CCCNC(=N)N)C(=O)O)NC(=O)[C@H](CCCNC(=N)N)NC(=O)[C@H](CCC(N)=O)NC(=O)[C@H](Cc2ccccc2)NC(=O)[C@@H]2CSSC[C@H](NC1=O)C(=O)N[C@@H](Cc1ccc(O)cc1)C(=O)N[C@@H](CCCNC(=N)N)C(=O)NCC(=O)N[C@@H](Cc1ccccc1)C(=O)N2 [PM III, polyphemusin III] (H-RRGCFRVCYRGFCFQRCR-OH; disulfide 4-17, 8-13 (inferred); N-terminus assumed) | 0.5 | 0.5 |  | 16 | 2 | 0.25 | 2 | 18 | 46
CC[C@H](C)[C@@H]1NC(=O)CNC(=O)[C@H](CCCNC(=N)N)NC(=O)[C@H](Cc2ccc(O)cc2)NC(=O)[C@@H]2CSSC[C@H](NC1=O)C(=O)N[C@@H](Cc1ccc(O)cc1)C(=O)N[C@@H](CCCNC(=N)N)C(=O)N[C@@H](CCCNC(=N)N)C(=O)N[C@H](C(=O)N[C@@H](CCCNC(=N)N)C(=O)O)CSSC[C@H](NC(=O)[C@H](Cc1c[nH]c3ccccc13)NC(=O)[C@@H](N)CCCCN)C(=O)N[C@@H](Cc1ccccc1)C(=O)N[C@@H](CCCNC(=N)N)C(=O)N[C@@H](C(C)C)C(=O)N2 [TP I, tachyplesin I] (H-KWCFRVCYRGICYRRCR-OH; disulfide 3-16, 7-12 (inferred); N-terminus assumed) | 0.5 | 1 | 38% | 8 | 0.5 | 0.062 | 0.5 |  | 
CC[C@H](C)[C@@H]1NC(=O)CNC(=O)[C@H](CCCNC(=N)N)NC(=O)[C@H](Cc2ccc(O)cc2)NC(=O)[C@@H]2CSSC[C@H](NC1=O)C(=O)N[C@@H](Cc1ccc(O)cc1)C(=O)N[C@@H](CCCNC(=N)N)C(=O)N[C@@H](CCCCN)C(=O)N[C@H](C(=O)N[C@@H](CCCNC(=N)N)C(=O)O)CSSC[C@H](NC(=O)[C@H](Cc1c[nH]c3ccccc13)NC(=O)[C@@H](N)CCCNC(=N)N)C(=O)N[C@@H](Cc1ccccc1)C(=O)N[C@@H](CCCNC(=N)N)C(=O)N[C@@H](C(C)C)C(=O)N2 [TP II, tachyplesin II] (H-RWCFRVCYRGICYRKCR-OH; disulfide 3-16, 7-12 (inferred); N-terminus assumed) | 0.5 | 1 | 33% | 8 | 0.5 | 0.062 | 1 |  | 
CC[C@H](C)[C@@H]1NC(=O)CNC(=O)[C@H](CCCNC(=N)N)NC(=O)[C@H](Cc2ccc(O)cc2)NC(=O)[C@@H]2CSSC[C@H](NC1=O)C(=O)N[C@@H](Cc1ccc(O)cc1)C(=O)N[C@@H](CCCNC(=N)N)C(=O)N[C@@H](CCCCN)C(=O)N[C@H](C(=O)N[C@@H](CCCNC(=N)N)C(=O)O)CSSC[C@H](NC(=O)[C@H](Cc1c[nH]c3ccccc13)NC(=O)[C@@H](N)CCCCN)C(=O)N[C@@H](Cc1ccccc1)C(=O)N[C@@H](CCCNC(=N)N)C(=O)N[C@@H](C(C)C)C(=O)N2 [TP III, tachyplesin III] (H-KWCFRVCYRGICYRKCR-OH; disulfide 3-16, 7-12 (inferred); N-terminus assumed) | 1 | 2 | 20% | 16 | 0.5 | 0.062 | 0.5 |  | 
